From ChEMBL document CHEMBL5150076, “Discovery of Novel Orally Bioavailable Triazoles with Potent and Broad-Spectrum Antifungal Activity In Vitro and In Vivo” (J Med Chem, 2022)
Converted amounts (≈) assume the structure as drawn. The source made the active and inactive calls. The calls are words filed in the database; no cut-off is given here.

Assays:
[1] = molecular target: T1, Lanosterol 14-alpha demethylase (Candida albicans (strain SC5314 / ATCC MYA-2876) (Yeast), UniProt P10613); test: Inhibition of CYP51 in Candida albicans SC5314 assessed as ergosterol level at 0.5 ug/ml measured after 12 hrs by GC-MS analysis (reference value: 72.58%); parameters: scale not given: the % may be the effect or the level left; conditions: at 0.5 µg/mL
Candida albicans [2] = test: Antifungal activity against Candida albicans 100 infected in ICR mouse assessed as median survival time at 0.25 mg/kg, po qd infected with fungus for 2 hrs prior to compound addition for 7 days and measured for 20 days; type: functional; conditions: time 20 day
Cryptococcus neoformans [3] = test: Antifungal activity against Cryptococcus neoformans H99 infected in ICR mouse assessed as median survival time at 0.5 mg/kg, po qd infected with fungus for 2 hrs prior to compound addition for 7 days and measured for 20 days; type: functional; conditions: time 20 day
Candida albicans [4] = test: Antifungal activity against Candida albicans 14#; type: functional
Candida albicans [5] = test: Antifungal activity against Candida albicans 12#; type: functional
Pichia kudriavzevii [6] = test: Antifungal activity against Candida krusei 397; type: functional
Candida albicans [7] = test: Antifungal activity against Candida albicans 100 infected in ICR mouse assessed as delay in mortality at 0.25 mg/kg, po qd infected with fungus for 2 hrs prior to compound addition for 7 days and measured for 20 days; type: functional, organism-based; conditions: time 20.0 day
[8] = molecular target: T1, Lanosterol 14-alpha demethylase; test: Inhibition of CYP51 in Candida albicans SC5314 assessed as lanosterol level at 0.0625 ug/ml measured after 12 hrs by GC-MS analysis (reference value: 2.18%); parameters: scale not given: the % may be the effect or the level left; conditions: dose 0.0625 µg/ml
Candida albicans [9] = test: Antifungal activity against Candida albicans SC5314 infected in ICR mouse assessed as delay in mortality at 0.25 to 0.5 mg/kg, po qd infected with fungus for 2 hrs prior to compound addition for 7 days and measured for 20 days; type: functional, organism-based; conditions: dose 0.25-0.5 mg/kg, time 20.0 day
Cryptococcus neoformans [10] = test: Antifungal activity against Cryptococcus neoformans H99 infected in ICR mouse assessed as delay in mortality at 0.5 to 5 mg/kg, po qd infected with fungus for 2 hrs prior to compound addition for 7 days and measured for 20 days; type: functional, organism-based; conditions: dose 0.5-5 mg/kg, time 20.0 day
Candida parapsilosis [11] = test: Antifungal activity against Candida parapsilosis 660; type: functional; conditions: Lodderomyces parapsilosis
Nakaseomyces glabratus [12] = test: Antifungal activity against Candida glabrata 537; type: functional
Aspergillus fumigatus [13] = test: Antifungal activity against Aspergillus fumigatus 7544 infected in ICR mouse assessed as delay in mortality at 20 to 60 mg/kg, po qd infected with fungus for 2 hrs prior to compound addition for 7 days and measured for 20 days; type: functional, organism-based; conditions: dose 20-60 mg/kg, time 20.0 day
Candida albicans [14] = test: Antifungal activity against Candida albicans Y0109; type: functional
Cryptococcus neoformans [15] = test: Antifungal activity against Cryptococcus neoformans 32605; type: functional
Candida albicans [16] = test: Antifungal activity against Candida albicans 25#; type: functional
[17] = AUC(0 to infinity) in Sprague-Dawley rat at 5 mg/kg, po by LC-MS analysis; type: ADME, organism-based; parameters: time infinity, dose 5 mg/kg, route po; conditions: in vivo
Pichia kudriavzevii [18] = test: Antifungal activity against Candida krusei 463; type: functional
Candida albicans [19] = test: Antifungal activity against Candida albicans 28#; type: functional
[20] = Clearance in Sprague-Dawley rat at 2 mg/kg, iv by LC-MS analysis; conditions: in vivo
[21] = Cmax in Sprague-Dawley rat at 5 mg/kg, po by LC-MS analysis; type: ADME, organism-based; parameters: dose 5 mg/kg, route po; conditions: in vivo
Candida albicans [22] = test: Antifungal activity against Candida albicans SC5314 infected in ICR mouse assessed as median survival time at 0.25 mg/kg, po qd infected with fungus for 2 hrs prior to compound addition for 7 days and measured for 20 days; type: functional; conditions: time 20 day
[23] = Half life in Sprague-Dawley rat at 5 mg/kg, po by LC-MS analysis; type: ADME, organism-based; conditions: in vivo
[24] = Oral bioavailability in Sprague-Dawley rat at 5 mg/kg by LC-MS analysis; type: ADME, organism-based; conditions: in vivo
Pichia kudriavzevii [25] = test: Antifungal activity against Candida krusei 467; type: functional
Candida albicans [26] = test: Antifungal activity against Candida albicans 162; type: functional
[27] = Cytotoxicity against HUVEC assessed as cell viability at 64 ug/ml incubated for 24 hrs by CCK-8 assay; type: toxicity, cell-based; conditions: human, HUVEC cells, dose 64 µg/ml, read-out: Activity
Candida albicans [28] = test: Antifungal activity against Candida albicans 305; type: functional
Aspergillus fumigatus [29] = test: Antifungal activity against Aspergillus fumigatus 7544 incubated for 48 hrs by microbroth dilution method; type: functional
Candida parapsilosis [30] = test: Antifungal activity against Candida parapsilosis 22019; type: functional; conditions: Lodderomyces parapsilosis
[31] = molecular target: T1, Lanosterol 14-alpha demethylase; test: Inhibition of CYP51 in Candida albicans SC5314 assessed as eburicol level at 0.0625 ug/ml measured after 12 hrs by GC-MS analysis (reference value: 0.00%); parameters: scale not given: the % may be the effect or the level left; conditions: dose 0.0625 µg/ml
[32] = Induction of drug resistance in Candida albicans SC5314 assessed as increase in MIC after 2 weeks (reference value: 0.008 microg/ml); type: functional; conditions: SC5314, 336 h
Candida albicans [33] = test: Antifungal activity against Candida albicans 20#; type: functional
[Candida] auris [34] = Antifungal activity against Candida auris 791; type: functional; conditions: Candidozyma auris
[Candida] auris [35] = Antifungal activity against Candida auris D12; type: functional; conditions: Candidozyma auris
[Candida] auris [36] = Antifungal activity against Candida auris BS12372; type: functional; conditions: Candidozyma auris
Candida parapsilosis [37] = test: Antifungal activity against Candida parapsilosis 90018; type: functional; conditions: Lodderomyces parapsilosis
Cryptococcus neoformans [38] = test: Antifungal activity against Cryptococcus neoformans H99 infected in po dosed ICR mouse assessed as increase in survival infected with fungus for 2 hrs prior to compound addition for 7 days and measured for 20 days; type: functional, organism-based; conditions: dose 0.5-5 mg/kg, time 20.0 day, DDE = dose-dependent effect
[39] = AUC(0 to infinity) in Sprague-Dawley rat at 2 mg/kg, iv by LC-MS analysis; type: ADME, organism-based; parameters: time infinity, dose 2 mg/kg, route iv; conditions: in vivo
[40] = Induction of drug resistance in Candida albicans SC5314 assessed as increase in MIC after 26 days (reference value: 0.0313 microg/ml); type: functional; conditions: SC5314, 624 h, time 26 day
[41] = Half life in Sprague-Dawley rat at 2 mg/kg, iv by LC-MS analysis; type: ADME, organism-based; conditions: in vivo
Nakaseomyces glabratus [42] = test: Antifungal activity against Candida glabrata ATCC2001; type: functional
Candida albicans [43] = test: Inhibition of biofilm formation in Candida albicans SC5314 at 0.0625 ug/ml relative to control; type: functional
Candida parapsilosis [44] = test: Antifungal activity against Candida parapsilosis 700; type: functional; conditions: Lodderomyces parapsilosis
Candida albicans [45] = test: Inhibition of biofilm formation in Candida albicans SC5314 at 0.002 ug/ml relative to control; type: functional
Candida tropicalis = test: Antifungal activity against Candida tropicalis ATCC750; type: functional
Candida albicans [46] = test: Inhibition of biofilm formation in Candida albicans SC5314; type: functional, organism-based; conditions: dose 0.002-0.5 µg/ml, DDE = dose-dependent effect
Cryptococcus neoformans [47] = test: Antifungal activity against Cryptococcus neoformans H99 infected in ICR mouse assessed as median survival time at 1 mg/kg, po qd infected with fungus for 2 hrs prior to compound addition for 7 days and measured for 20 days; type: functional; conditions: time 20 day
Candida albicans [48] = test: Antifungal activity against Candida albicans SC5314 infected in ICR mouse assessed as median survival time at 0.5 mg/kg, po qd infected with fungus for 2 hrs prior to compound addition for 7 days and measured for 20 days; type: functional; conditions: time 20 day
Pichia kudriavzevii [49] = test: Antifungal activity against Candida krusei 629; type: functional

T1 sequence (P10613 whole entry): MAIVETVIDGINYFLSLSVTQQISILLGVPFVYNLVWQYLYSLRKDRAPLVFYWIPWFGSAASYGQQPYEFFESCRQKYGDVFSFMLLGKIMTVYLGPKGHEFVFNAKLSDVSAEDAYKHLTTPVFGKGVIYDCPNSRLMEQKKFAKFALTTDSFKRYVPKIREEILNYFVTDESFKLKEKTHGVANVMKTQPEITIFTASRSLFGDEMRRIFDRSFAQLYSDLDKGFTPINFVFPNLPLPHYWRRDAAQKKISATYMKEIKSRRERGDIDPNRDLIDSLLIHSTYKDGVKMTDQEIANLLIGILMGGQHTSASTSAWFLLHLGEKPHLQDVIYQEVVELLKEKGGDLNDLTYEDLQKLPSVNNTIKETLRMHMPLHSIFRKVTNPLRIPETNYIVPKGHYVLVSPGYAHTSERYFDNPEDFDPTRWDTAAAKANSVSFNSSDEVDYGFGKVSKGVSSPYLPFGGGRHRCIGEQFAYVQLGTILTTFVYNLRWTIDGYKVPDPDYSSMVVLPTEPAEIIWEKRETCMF

For C[C@@H](c1cn(-c2ccc(Cl)cc2F)nn1)[C@](O)(Cn1cncn1)c1ccc(F)cc1F, the Activity [1] was 74.56%, the Time (Candida albicans [2]) was 14 days and the Time (Cryptococcus neoformans [3]) was 10.5 days. It also gave an MIC (Candida albicans [4]) of 8 mg/L (≈ 17.8 µM), an MIC (Candida albicans [5]) of 16 mg/L (≈ 35.6 µM) and an MIC (Pichia kudriavzevii [6]) of 0.125 mg/L (≈ 0.278 µM). The Activity (Candida albicans [7]) was “Active”, the Activity [8] was 6.46% and the Activity (Candida albicans [9]) was “Active”. The Activity (Cryptococcus neoformans [10]) was “Active”, the MIC (Candida parapsilosis [11]) was no more than 0.0313 mg/L and the MIC (Nakaseomyces glabratus [12]) was 0.0625 mg/L (≈ 0.139 µM). For the same compound, the Activity (Aspergillus fumigatus [13]) was “Active”, the MIC (Candida albicans [14]) was 0.0156 mg/L (≈ 0.0348 µM) and the MIC (Cryptococcus neoformans [15]) was 0.0156 mg/L (≈ 0.0348 µM). For the same compound, the MIC (Candida albicans [16]) was 16 mg/L (≈ 35.6 µM), the AUC(0-inf) [17] was 3.86 µg·h/mL and the MIC (Pichia kudriavzevii [18]) was 0.125 mg/L (≈ 0.278 µM). For the same compound, the MIC (Candida albicans [19]) was no more than 0.0313 mg/L, the clearance [20] was 0.119 L/h/kg and the Cmax [21] was 0.837 µg/mL. For the same compound, the Time (Candida albicans [22]) was 13.5 days, the half-life [23] was 1.4 h and the bioavailability [24] was 34%. The MIC (Pichia kudriavzevii [25]) was 0.125 mg/L (≈ 0.278 µM), the MIC (Candida albicans [26]) was 8 mg/L (≈ 17.8 µM) and the viability at 24 h, 64 ug/ml [27] was 89.1%. The MIC (Candida albicans [28]) was 8 mg/L (≈ 17.8 µM), the MIC (Aspergillus fumigatus [29]) was 1 mg/L (≈ 2.23 µM) and the MIC (Candida parapsilosis [30]) was 0.0625 mg/L (≈ 0.139 µM). For the same compound, the Activity [31] was 88.96%, the MIC [32] was 0.313 mg/L and the MIC (Candida albicans [33]) was no more than 0.0313 mg/L. For the same compound, the MIC ([Candida] auris [34]) was 1 mg/L (≈ 2.23 µM), the MIC ([Candida] auris [35]) was 1 mg/L (≈ 2.23 µM) and the MIC ([Candida] auris [36]) was 0.25 mg/L (≈ 0.557 µM). The MIC (Candida parapsilosis [37]) was no more than 0.0313 mg/L, the Activity (Cryptococcus neoformans [38]) was “Dde” and the AUC(0-inf) [39] was 8.41 µg·h/mL. The MIC [40] was 0.125 mg/L, the half-life [41] was 4.5 h and the MIC (Nakaseomyces glabratus [42]) was 0.125 mg/L (≈ 0.278 µM). The inhibition at 0.0625 µg/mL (Candida albicans [43]) was 75%, the MIC (Candida parapsilosis [44]) was 0.0625 mg/L (≈ 0.139 µM) and the inhibition at 0.002 µg/mL (Candida albicans [45]) was 20%. The MIC (Candida tropicalis) was 8 mg/L (≈ 17.8 µM), the inhibition (Candida albicans [46]) was “Dde” and the Time (Cryptococcus neoformans [47]) was 14 days. It also gave a Time (Candida albicans [48]) of 17 days and an MIC (Pichia kudriavzevii [49]) of 0.25 mg/L (≈ 0.557 µM).
